Measured values published in the Kinase Knowledgebase extract (Sharma et al. 2016).

Molecular target: PIK3CB;PIK3CG;PIK3CD;PIK3CA (human) (UniProt P48736)
Experiment: Inhibition of PIK3CA/PIK3CB/PIK3CD/PIK3CG Kinase Activity

Row | Structure (SMILES) | IC50
1 | COc1ccc(CC2CCCCC2)c(Nc2nc3ccccc3nc2NS(=O)(=O)c2cn(C)cn2)c1 | 450 nM
2 | COc1ccc(CCS(C)(=O)=O)c(Nc2nc3ccccc3nc2NS(=O)(=O)CCCSC)c1 | 140 nM
3 | COc1ccc(CCCO)c(Nc2nc3ccccc3nc2NS(=O)(=O)C2CCS(=O)(=O)C2)c1 (configuration not stated) | 130 nM
4 | COc1cc(Nc2nc3ccccc3nc2NS(=O)(=O)c2cccnc2)cc(C(=O)N2CCN(C)CC2)c1 | 3340 nM
5 | CCCS(=O)(=O)Nc1nc2ccccc2nc1Nc1cc(OC)ccc1CCS(C)(=O)=O | 87 nM
6 | COc1ccc(CO)c(Nc2nc3ccccc3nc2NS(=O)(=O)c2cn(C)cn2)c1 | 470 nM
7 | COc1ccc(CC2CCOCC2)c(Nc2nc3ccccc3nc2NS(C)(=O)=O)c1 | 130 nM
8 | COc1ccc(CCCO)c(Nc2nc3ccccc3nc2NS(=O)(=O)c2cn(C)c(CS(C)(=O)=O)n2)c1 | 87 nM
9 | COc1ccc(CCS(C)(=O)=O)c(Nc2nc3ccccc3nc2NS(=O)(=O)C(C)C)c1 | 160 nM
10 | COc1ccc(CC2CCN(C(=O)CN(C)C)CC2)c(Nc2nc3ccccc3nc2NS(=O)(=O)c2cn(C)cn2)c1 | 100 nM
11 | COC(=O)c1ccc(OC)cc1Nc1nc2ccccc2nc1NS(=O)(=O)c1cccnc1 | 88 nM
12 | COc1ccc(CCO)c(Nc2nc3ccccc3nc2NS(=O)(=O)CCCS(C)(=O)=O)c1 | 120 nM
13 | COc1ccc(CC(O)CO)c(Nc2nc3ccccc3nc2NS(=O)(=O)c2cn(C)cn2)c1 (configuration not stated) | 120 nM
14 | COc1ccc(CCCO)c(Nc2nc3ccccc3nc2NS(=O)(=O)CCCS(C)(=O)=O)c1 | 120 nM
15 | COc1ccc(CC2C[C@H]3CC[C@@H](C2)N3C)c(Nc2nc3ccccc3nc2NS(=O)(=O)c2cn(C)cn2)c1 (some centres not stated) | 110 nM
16 | COc1ccc(CC2CCN(C(C)=O)CC2)c(Nc2nc3ccccc3nc2NS(C)(=O)=O)c1 | 170 nM
17 | COc1cc(Nc2nc3ccccc3nc2NS(=O)(=O)c2cccnc2)cc(C(=O)N2CCOCC2)c1 | 3100 nM
18 | COc1ccc(CC2CCN(S(C)(=O)=O)CC2)c(Nc2nc3ccccc3nc2NS(=O)(=O)c2cn(C)cn2)c1 | 160 nM
19 | COc1ccc(CCO)c(Nc2nc3ccccc3nc2NS(=O)(=O)c2ccc(C(=O)N(C)C)cc2)c1 | 250 nM
20 | COc1ccc(CC2CCCCC2)c(Nc2nc3ccccc3nc2NS(=O)(=O)c2ccc(CN(C)C)cc2)c1 | 760 nM
21 | COc1ccc(C(=O)O)c(Nc2nc3ccccc3nc2NS(=O)(=O)c2cccnc2)c1 | 4680 nM
22 | COc1ccc(CCCO)c(Nc2nc3ccccc3nc2NS(=O)(=O)c2c(C)noc2C)c1 | 130 nM
23 | COc1ccc(CCO)c(Nc2nc3ccccc3nc2NS(=O)(=O)c2c(C)noc2C)c1 | 286 nM

The next compounds have a lower IC50 than those just listed; values first:

Row | IC50 | Structure (SMILES)
24 | 84 nM | COc1ccc(CCS(C)(=O)=O)c(Nc2nc3ccccc3nc2NS(=O)(=O)c2cn(C)cn2)c1
25 | 21 nM | COC(=O)c1ccc(OC)cc1Nc1nc2ccccc2nc1NS(=O)(=O)c1cn(C)cn1
26 | 22 nM | COc1ccc(CCO)c(Nc2nc3ccccc3nc2NS(=O)(=O)c2ccc(C#N)cc2)c1
27 | 18 nM | COc1ccc(CC2CCC(O)CC2)c(Nc2nc3ccccc3nc2NS(=O)(=O)c2cn(C)cn2)c1 (configuration not stated)
28 | 36 nM | COc1ccc(CCO)c(Nc2nc3ccccc3nc2NS(=O)(=O)c2ccc(CCCO)cc2)c1
29 | 26 nM | COc1ccc(CCCO)c(Nc2nc3ccccc3nc2NS(=O)(=O)C2CCNCC2)c1
30 | 64 nM | COc1ccc(CCCO)c(Nc2nc3ccccc3nc2NS(C)(=O)=O)c1
31 | 20 nM | COc1ccc(CC2CCC(O)CC2)c(Nc2nc3ccccc3nc2NS(=O)(=O)c2cccnc2)c1 (configuration not stated)
32 | 45 nM | COc1ccc(CC2CCN(C)CC2)c(Nc2nc3ccccc3nc2NS(=O)(=O)c2cccnc2)c1
33 | 30 nM | COc1ccc(CCCO)c(Nc2nc3ccccc3nc2NS(=O)(=O)c2cccc(NC(=O)CN(C)C)c2)c1
34 | 50 nM | COc1ccc(CCCS(C)(=O)=O)c(Nc2nc3ccccc3nc2NS(=O)(=O)c2cn(C)cn2)c1
35 | 21 nM | CC#N.COc1ccc(CCCO)c(Nc2nc3ccccc3nc2NS(=O)(=O)c2cn(C)cn2)c1
36 | 49 nM | CCCS(=O)(=O)Nc1nc2ccccc2nc1Nc1cc(OC)ccc1CCCO
37 | 48 nM | COc1ccc(CCO)c(Nc2nc3ccccc3nc2NS(=O)(=O)c2cn(C)cn2)c1
